Measurements as given in patent publication US10532065B2, “Bisphosphonic acid derivative and application for same” (NAGASAKI UNIVERSITY, priority 2014, dated 2020).

Columns and labels:
Format in all cases: cell-based
U937 cells = assay: U937 cell growth inhibition (direct antitumor action, CellTiterGlo); conditions: for IC50: U937 cell growth inhibition, 4 days culture; for direct antitumor activity (in words): U937 growth inhibition
Description: (§1) The direct antitumor action of bisphosphonic acid POM ester and bisphosphonic acid was studied by comparison using U937.
(§2) The direct antitumor action of various bisphosphonic acid POM esters was studied by comparison using U937 and EJ-1. The measurement was performed according to Experimental Example 2 and Experimental Example 4.

EJ-1 cells / γδ T cells = assay: TNF-α production from γδ T cells stimulated by compound-pretreated EJ-1 cells (indirect antitumor action, ELISA); conditions: for EC50: EJ-1 pretreated 4 hr with compound, 16 hr with γδ T cells, TNF-α ELISA, read-out: TNF-α50
Description: The indirect antitumor action of bisphosphonic acid POM esters and bisphosphonic acids was studied by comparison using EJ-1. In principle, EJ-1 is treated with a compound, washed, and reacted with γδ T cells, and the cytotoxic ability is studied by comparison, by quantifying TNF-α produced by γδ T cells during cell disordering. TNF-α is generally used as an index of γδ T cell induction ability and/or proliferative capacity, and γδ T cells are considered to be induced and/or proliferated in proportion to the TNF-α amount (Journal of Immunology, 154, 5986-5994 (1995)). Since the produced TNF-α is what is called a tumor necrosis factor, it is considered to have an action to lower proliferation of cancer cells or induce cell death.
Thereto was added a solution (500 μl) of compounds 3, 5, 6, 7, which are bisphosphonic acid POM ester derivatives, obtained by serially diluting 10 mM stock solution 10-fold from 20 μM, or a solution (500 μl) of bisphosphonic acid 10, 12, 13, 14 compound obtained by serially diluting 10-fold from 200 μM, and the cells were suspended well. These conical tubes were stood at 37° C. for 4 hr, and the cells were washed 3 times with 5 ml of culture medium. To these cells was added 500 μl of medium, and the cells were suspended well. […] The cell culture medium was suspended well, and the plate was centrifuged at 1,700 rpm, 4° C. for 2 min and the culture supernatant (150 μl) was taken and placed in another round-bottomed 96 well plate. The plate was frozen at −80° C. overnight, left standing at room temperature for 1 hr, stirred well and 100 μl thereof was subjected to ELISA of TNF-α. The content of TNF-α was calculated from the analytical curve of TNF-α. These were performed in triplicate, and a graph showing bisphosphonic acid POM ester derivative and the corresponding bisphosphonic acid as one pair was plotted. […] The results of bisphosphonic acid POM ester derivative are shown by -●-, and the results of bisphosphonic acid are shown by -◯-.
The indirect antitumor action of bisphosphonic acid POM esters and bisphosphonic acids was quantitatively studied by comparison using EJ-1. […] Thereto was added a solution (500 μl) of a bisphosphonic acid POM ester derivative obtained by serially diluting 10 mM stock solution 10-fold from 20 μM, or a bisphosphonic acid solution (500 μl) serially diluted 10-fold from 200 μM was added, and the cells were suspended well. These conical tubes were stood at 37° C. for 4 hr, and the cells were washed 3 times with 5 ml of culture medium. To these cells was added 500 μl of medium, and the cells were suspended well. […] The cell culture medium was suspended well, and the plate was centrifuged at 1,700 rpm, 4° C. for 2 min and the culture supernatant (150 μl) was taken and placed in another round-bottomed 96 well plate. The plate was frozen at −80° C. overnight, left standing at room temperature for 1 hr, stirred well and 100 μl thereof was subjected to ELISA of TNF-α. The content of TNF-α was calculated from the analytical curve of TNF-α. These were performed in triplicate, and a half of the concentration of compounds 1-7, which are bisphosphonic acid POM ester derivatives, and compounds 8-14, which are bisphosphonic acids, necessary for producing the maximum amount of TNF-α from γδ T cells was calculated as TNF-α50, and summarized in Table 6.
Therefore, the TNF-α50 value of various bisphosphonic acid POM ester derivatives was calculated. […] Thereto was added a solution (500 μl) of compounds 1-7 and 15-39, which are bisphosphonic acid POM ester derivatives, and compound 42, which is other bisphosphonic acid ester derivative, obtained by serially diluting 10 mM stock solution 10-fold from 20 μM, and the cells were suspended well. These conical tubes were stood at 37° C. for 4 hr, and the cells were washed 3 times with 5 ml of culture medium. To these cells was added 500 μl of medium, and the cells were suspended well. […]

EJ-1 cells = assay: EJ-1 cell growth inhibition (direct antitumor action, CellTiterGlo); conditions: for IC50: EJ-1 (bladder cancer) growth inhibition, 4 days culture; for direct antitumor activity (in words): EJ-1 growth inhibition
Description: as §1
(§3) The direct antitumor action of bisphosphonic acid POM ester derivatives and bisphosphonic acids was studied by comparison using EJ-1. It was performed in the same manner as in Experimental Example 1 except that EJ-1 was used as the cell to be used. For recovery of the cells, a conventional EDTA trypsin treatment was performed.
as §3, with “POM esters” for “POM ester derivatives”, “Example 2” for “Example 1”
as §2

| SMILES | IC50 (U937 cells) [µM] | direct antitumor activity (in words) (U937 cells) | EC50 (EJ-1 cells / γδ T cells) [µM] | IC50 (EJ-1 cells) [µM] | direct antitumor activity (in words) (EJ-1 cells) | TNF-α production induction activity (in words) (EJ-1 cells / γδ T cells; EJ-1 pretreated with compound, γδ T cells) |
| --- | --- | --- | --- | --- | --- | --- |
| CC(C)(C)C(=O)OCOP(=O)(OCOC(=O)C(C)(C)C)C(CNc1nc(-c2ccccc2)cs1)P(=O)(OCOC(=O)C(C)(C)C)OCOC(=O)C(C)(C)C [Compound 35, tetrakispivaloyloxymethyl 2-(4-phenylthiazol-2-ylamino)ethylidene-1,1-bisphosphonate] | 1.1 | high activity | > 10 | 3.5 | high activity | – |
| Cc1cnc(NCC(P(=O)(OCOC(=O)C(C)(C)C)OCOC(=O)C(C)(C)C)P(=O)(OCOC(=O)C(C)(C)C)OCOC(=O)C(C)(C)C)s1 [Compound 34, tetrakispivaloyloxymethyl 2-(5-methylthiazol-2-ylamino)ethylidene-1,1-bisphosphonate] | 2.5 | high activity | 0.063 | 1.1 | high activity | high activity |
